Laboratory results: ChEMBL document CHEMBL1143693, “Cancer chemopreventive effects of cycloartane-type and related triterpenoids in in vitro and in vivo models” (J Nat Prod, 2007)

What was measured:
[1] = system: Human gammaherpesvirus 4; assay: Inhibition of TPA-induced Epstein-Barr virus early antigen activation in Raji cells after 48 hrs; type: functional, organism-based; settings: human gammaherpesvirus 4, Raji
[2] = system: Raji; assay: Cell viability of Raji cells at 320 nM; type: functional, Homo sapiens
[3] = Scavenging activity against NO generation in human Chang liver cells assessed as inhibition of NOR1-activation at 350 nM relative to NOR1; type: functional
[4] = system: Human gammaherpesvirus 4; assay: Inhibition of TPA-induced Epstein-Barr virus early antigen activation assessed as EBV-EA induction in Raji cells at 32 nM after 48 hrs relative to TPA; values are per cent of control; settings: human gammaherpesvirus 4, Raji
[5] = system: Human gammaherpesvirus 4; assay: Inhibition of TPA-induced Epstein-Barr virus early antigen activation assessed as EBV-EA induction in Raji cells at 320 nM after 48 hrs relative to TPA; values are per cent of control; settings: human gammaherpesvirus 4, Raji
[6] = system: Human gammaherpesvirus 4; assay: Inhibition of TPA-induced Epstein-Barr virus early antigen activation assessed as EBV-EA induction in Raji cells at 3.2 nM after 48 hrs relative to TPA; values are per cent of control; settings: human gammaherpesvirus 4, Raji
[7] = system: Human gammaherpesvirus 4; assay: Inhibition of TPA-induced Epstein-Barr virus early antigen activation assessed as EBV-EA induction in Raji cells at 0.32 nM after 48 hrs relative to TPA; values are per cent of control; settings: human gammaherpesvirus 4, Raji

Row | IC50 [1] [nM] | Compound | Activity [2] [%] | Activity [3] | level, % of control at 0.032 µM [4] [%] | level, % of control at 0.32 µM [5] [%] | level, % of control at 0.0032 µM [6] [%] | level, % of control at 0.00032 µM [7] [%]
1 | 9 | CC(C)C(=O)CC[C@@H](C)[C@H]1CC[C@@]2(C)[C@@H]3CC[C@H]4C(C)(C)C(=O)CC[C@@]45C[C@@]35CC[C@]12C | 70 | 1.9 | 24 | 0 | 72.1 | 96.3
2 | 10.3 | C=C(CC[C@@H](C)[C@H]1CC[C@@]2(C)[C@@H]3CC[C@H]4[C@H](C)C(=O)CC[C@@]45C[C@@]35CC[C@]12C)C(C)C [CYCLOEUCALENONE] | 70 | 1.5 | 33.4 | 0 | 74 | 96.2
3 | 9.3 | C=C(C)C(=O)CC[C@@H](C)[C@H]1CC[C@@]2(C)[C@@H]3CC[C@H]4C(C)(C)[C@@H](O)CC[C@@]45C[C@@]35CC[C@]12C | 70 | 1.4 | 25.4 | 1.5 | 73.1 | 97.8
4 | 9.5 | CC(C)=CCC[C@@H](C)[C@H]1CC[C@@]2(C)[C@@H]3CC[C@H]4[C@H](C)[C@@H](O)CC[C@@]45C[C@@]35CC[C@]12C | 70 | 1.8 | 30.2 | 0 | 71.4 | 94.6
5 | 8.6 | C[C@H](C/C=C/C(C)(C)O)[C@H]1CC[C@@]2(C)[C@@H]3CC[C@H]4C(C)(C)C(=O)CC[C@@]45C[C@@]35CC[C@]12C | 70 | 1.9 | 20 | 0 | 67.2 | 90.1
6 | 8.8 | C=C(C)[C@@H](CC)CC[C@@H](C)[C@H]1CC[C@@]2(C)[C@@H]3CC[C@H]4C(C)(C)[C@@H](O)CC[C@@]45C[C@@]35CC[C@]12C [POLYSTHICOL (24S)] | 70 | 2 | 28.9 | 0 | 69.1 | 93.1
7 | 9.9 | CC(C)CCC[C@@H](C)[C@H]1CC[C@@]2(C)[C@@H]3CC[C@H]4C[C@@H](O)CC[C@@]45C[C@@]35CC[C@]12C [POLLINASTANOL] | 70 | 1.5 | 31.7 | 0 | 73.1 | 95.9
8 | 10.1 | C=C(CC[C@@H](C)[C@H]1CC[C@@]2(C)[C@@H]3CC[C@H]4[C@H](C)[C@@H](OC(C)=O)CC[C@@]45C[C@@]35CC[C@]12C)C(C)C [CYCLOEUCALENOL ACETATE] | 70 | 1.5 | 32.4 | 0 | 73.5 | 96.2
9 | 8.9 | CC(=O)[C@H]1CC[C@@]2(C)[C@@H]3CC[C@H]4C(C)(C)C(=O)CC[C@@]45C[C@@]35CC[C@]12C | 70 | 1.5 | 22.1 | 0 | 70.3 | 94.6
10 | 9.3 | C=C(C)[C@@H](C)CC[C@@H](C)[C@H]1CC[C@@]2(C)[C@@H]3CC[C@H]4[C@H](C)[C@H](O)CC[C@@]45C[C@@]35CC[C@]12C | 70 | 1.8 | 29.3 | 0 | 71.5 | 94.5
11 | 8.8 | COC(CC[C@@H](C)[C@H]1CC[C@@]2(C)[C@@H]3CC[C@H]4C(C)(C)C(=O)CC[C@@]45C[C@@]35CC[C@]12C)C(C)(C)O (stereo partly drawn) | 70 | 1.9 | 21 | 0 | 67.1 | 94.6
12 | 9.9 | CC(C)CCC[C@@H](C)[C@H]1CC[C@@]2(C)[C@@H]3CC[C@H]4[C@H](C)[C@@H](O)CC[C@@]45C[C@@]35CC[C@]12C | 70 | 1.5 | 31.5 | 0 | 72.6 | 95.6
13 | 8.8 | CC(C)=CCC[C@@H](C)[C@H]1CC[C@@]2(C)[C@@H]3CC[C@H]4C(C)(C)C(=O)CC[C@@]45C[C@@]35CC[C@]12C [CYCLOARTENONE] | 70 | 1.5 | 24.6 | 2.3 | 71.3 | 92.6

Second part, the compound before the results:

Row | Compound | IC50 [1] [nM] | Activity [2] [%] | Activity [3] | level, % of control at 0.032 µM [4] [%] | level, % of control at 0.32 µM [5] [%] | level, % of control at 0.0032 µM [6] [%] | level, % of control at 0.00032 µM [7] [%]
14 | C[C@@H]1[C@@H](O)CC[C@]23C[C@]24CC[C@]2(C)[C@@H]([C@H](C)CC[C@H](O)C(C)(C)O)CC[C@@]2(C)[C@@H]4CC[C@@H]13 | 6.7 | 70 | 1.7 | 17.1 | 0 | 61.3 | 88.8
15 | CC(=O)O[C@@H]1CC[C@]23C[C@]24CC[C@]2(C)[C@@H]([C@H](C)CCC=C(C)C)CC[C@@]2(C)[C@@H]4CC[C@H]3C1(C)C | 10.2 | 70 | 1.6 | 33.2 | 0 | 73.1 | 96
16 | CC(C)=CCC[C@@H](C)[C@H]1CC[C@@]2(C)[C@@H]3CC[C@H]4C(C)(C)[C@H](O)CC[C@@]45C[C@@]35CC[C@]12C | 9.2 | 70 | 1.8 | 29.7 | 0 | 70.3 | 93.7
17 | C=C(CC[C@@H](C)[C@H]1CC[C@@]2(C)[C@@H]3CC[C@H]4[C@H](C)[C@H](O)CC[C@@]45C[C@@]35CC[C@]12C)C(C)C | 9.4 | 70 | 1.6 | 30.5 | 0 | 73.1 | 95.9
18 | C=C(CC[C@@H](C)[C@H]1CC[C@@]2(C)[C@@H]3CC[C@H]4[C@H](C)[C@@H](O)CC[C@@]45C[C@@]35CC[C@]12C)C(C)C [CYCLOEUCALENOL] | 8.9 | 70 | 1.7 | 26.5 | 0 | 68.1 | 94.8
19 | CC(C)=CCC[C@@H](C)[C@H]1CC[C@@]2(C)[C@@H]3CC[C@H]4C(C)(C)[C@@H](O)CC[C@@]45C[C@@]35CC[C@]12C [CYCLOARTENOL] | 8.8 | 70 | 1.6 | 25.8 | 0 | 69.9 | 93.5
20 | CC(C)C(=O)CC[C@@H](C)[C@H]1CC[C@@]2(C)[C@@H]3CC[C@H]4C(C)(C)[C@@H](O)CC[C@@]45C[C@@]35CC[C@]12C | 8.1 | 70 | 2 | 19.8 | 0 | 62.7 | 90.5
21 | C/C(=C\C[C@@H](C)[C@H]1CC[C@@]2(C)[C@@H]3CC[C@H]4C(C)(C)[C@@H](O)CC[C@@]45C[C@@]35CC[C@]12C)C(C)C [(23E)-CYCLOSADOL] | 9.9 | 70 | 2 | 31.4 | 0 | 72.8 | 95.2
22 | C=C(CC[C@@H](C)[C@H]1CC[C@@]2(C)[C@@H]3CC[C@H]4C[C@@H](O)CC[C@@]45C[C@@]35CC[C@]12C)C(C)C | 9.5 | 70 | 1.5 | 30.5 | 0 | 72.7 | 95.8
23 | CC(C)CCC[C@@H](C)[C@H]1CC[C@@]2(C)[C@@H]3CC[C@H]4C(C)(C)[C@@H](O)CC[C@@]45C[C@@]35CC[C@]12C [CYCLOARTANOL] | 9.4 | 70 | 1.8 | 30.2 | 0 | 70.2 | 95
24 | C=C(CC[C@@H](C)[C@H]1CC[C@@]2(C)[C@@H]3CC[C@H]4[C@@H](C)[C@@H](O)CC[C@@]45C[C@@]35CC[C@]12C)C(C)C | 9.5 | 70 | 1.5 | 29.9 | 0 | 72 | 95.1
